Measurements from patent US5405852A, “Amide derivatives” (Zeneca Limited, priority 1992, dated 1995).

Target: T1, human leukocyte elastase (HLE) (Homo sapiens, UniProt P08246)
T1 sequence (P08246 30-267): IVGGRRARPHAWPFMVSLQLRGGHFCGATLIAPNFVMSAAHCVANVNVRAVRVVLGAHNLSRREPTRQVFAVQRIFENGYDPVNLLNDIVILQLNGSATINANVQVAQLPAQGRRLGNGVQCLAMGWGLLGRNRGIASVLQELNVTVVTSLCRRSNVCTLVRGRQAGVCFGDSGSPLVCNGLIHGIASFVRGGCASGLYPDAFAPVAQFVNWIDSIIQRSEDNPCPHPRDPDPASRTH
Test: Inhibition of human leukocyte elastase (HLE) on methoxy-succinyl-alanyl-alanyl-prolyl-valine-p-nitroanilide
Format: biochemical
Conditions: dissociation constant of the inhibitor-HLE complex
Method: The potency of a Compound to act as an inhibitor of human leukocyte elastase (HLE) on the low molecular weight peptide substrate methoxy-succinyl-alanyl-alanyl-prolyl-valine-p-nitroanilide is determined as described in U.S. Pat. No. 4,910,190. The potency of an inhibitor is evaluated by obtaining a kinetic determination of the dissociation constant, Ki, of the complex formed from the interaction of the inhibitor with HLE. If a Compound is found to be a "slow-binding" inhibitor of HLE, special methods of analysis to accurately determine Ki values for the inhibition of HLE are carried out as described in U.S. Pat. 4,910,190.

CC(C)C(NC(=O)Cn1c(-c2ccccc2)cc2c([nH]c3c(C=O)cccc32)c1=O)C(=O)C(F)(F)F (stereo not shown) [Example 2, 2-(8-Formyl-1-oxo-3-phenyl-1,2-dihydropyrido[3,4-b]indol2-yl)-N-(3,3,3-trifluoro-1-isopropyl-2-oxopropyl)acetamide]
Ki: 27 nM
